The values below come from PubChem BioAssay AID252 (DTP/NCI, 2004).

The subject of the test is BDF1 mice, intracerebral L1210 leukemia, survival T/C. Description: NCI In Vivo Anticancer Drug Screen. Data for tumor model L1210 Leukemia (intracerebral) in B6D2F1 (BDF1) mice. The following applies: higher = longer survival. The essentials:
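Tumour was transplanted, animals received compound or vehicle, then survival in each group was measured and treated divided by control.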

The mark [1] stands for this setting: endpoint: mean survival time, dose: 2.0 mg/kg/injection, schedule: Q01DX009 (ip), vehicle: saline.

Several values for one entry are separate records, joined by “and”; a condition that tells them apart may be missing. Equal values may be shown once. Toxic doses and inconclusive results are not listed. *1 amine or outer side, *2 acyl side, *3 side chain or, on linkers, in order; H or OH if unused. Where a SMILES comes first, the peptide text is derived from it. Bridges are numbered along the chain shown (N, C = ends). Roman numbers before positions name the chains, in order. [ ]: non-standard residue; d: D form. Actinocin(9to1) = Cc1c2oc3c(C)ccc(C(=O)[*:1])c3nc-2c(C(=O)[*:2])c(N)c1=O; aThr = C[C@H](O)[C@H](N)C(=O)O; NMeV = CN[C@H](C(=O)O)C(C)C; Sar = CNCC(=O)O

As for `O=NN(CCCl)C(=O)NCCCl`, the T/C was 122 % of control under setting [1]; 151 % of control (endpoint: mean survival time, dose: 3.0 mg/kg/injection, schedule: Q04DX003 (ip), vehicle: saline); 114 % of control (endpoint: mean survival time, dose: 3.7 mg/kg/injection, schedule: Q01DX001 (ip), vehicle: other); 174 % of control (endpoint: mean survival time, dose: 4.0 mg/kg/injection, schedule: Q01DX009 (ip), vehicle: other); 154 % of control (endpoint: mean survival time, dose: 4.0 mg/kg/injection, schedule: Q01DX009 (ip), vehicle: saline); 117 % of control (endpoint: mean survival time, dose: 5.0 mg/kg/injection, schedule: Q01DX001 (ip), vehicle: other). Further, the T/C is 121 % of control (endpoint: mean survival time, dose: 5.0 mg/kg/injection, schedule: Q01DX001 (ip), vehicle: saline); 173 % of control (endpoint: mean survival time, dose: 6.0 mg/kg/injection, schedule: Q04DX003 (ip), vehicle: saline); 119 % of control (endpoint: mean survival time, dose: 7.0 mg/kg/injection, schedule: Q01DX001 (ip), vehicle: other); 175 % of control (endpoint: mean survival time, dose: 8.0 mg/kg/injection, schedule: Q01DX005 (ip), vehicle: saline); 225 % of control (endpoint: mean survival time, dose: 8.0 mg/kg/injection, schedule: Q01DX009 (ip), vehicle: other); 197 % of control (endpoint: mean survival time, dose: 8.0 mg/kg/injection, schedule: Q01DX009 (ip), vehicle: saline). In addition, the T/C runs as follows: (endpoint: mean survival time, dose: 8.4 mg/kg/injection, schedule: Q01DX001 (ip), vehicle: saline) 117 % of control and 122 % of control; (endpoint: mean survival time, dose: 9.75 mg/kg/injection, schedule: Q01DX001 (ip), vehicle: saline) 150 % of control and 153 % of control and 173 % of control; (endpoint: mean survival time, dose: 10.0 mg/kg/injection, schedule: Q01DX001 (oral), vehicle: saline) 120 % of control; (endpoint: mean survival time, dose: 11.0 mg/kg/injection, schedule: Q04DX003 (ip), vehicle: saline + alcohol) 203 % of control; (endpoint: mean survival time, dose: 12.0 mg/kg/injection, schedule: Q04DX003 (ip), vehicle: saline) 250 % of control; (endpoint: mean survival time, dose: 13.0 mg/kg/injection, schedule: Q01DX001 (ip), vehicle: saline) 219 % of control and 284 % of control. Also, the T/C is 186 % of control (endpoint: mean survival time, dose: 14.0 mg/kg/injection, schedule: Q01DX001 (sc), vehicle: saline); 153 % of control and 155 % of control (endpoint: mean survival time, dose: 15.0 mg/kg/injection, schedule: Q01DX001 (ip), vehicle: other); 175 % of control (endpoint: mean survival time, dose: 15.0 mg/kg/injection, schedule: Q01DX001 (ip), vehicle: saline); 123 % of control (endpoint: mean survival time, dose: 16.0 mg/kg/injection, schedule: Q01DX009 (ip), vehicle: other); 103 % of control (endpoint: mean survival time, dose: 16.0 mg/kg/injection, schedule: Q01DX009 (ip), vehicle: saline); 197 % of control and 202 % of control and 226 % of control (endpoint: mean survival time, dose: 19.5 mg/kg/injection, schedule: Q01DX001 (ip), vehicle: saline). Also, the T/C is 217 % of control and 250 % of control (2×) (endpoint: mean survival time, dose: 19.7 mg/kg/injection, schedule: Q01DX001 (oral), vehicle: saline); 174 % of control (endpoint: mean survival time, dose: 20.0 mg/kg/injection, schedule: Q01DX001 (ip), vehicle: other); 159 % of control and 172 % of control (endpoint: mean survival time, dose: 20.0 mg/kg/injection, schedule: Q01DX001 (oral), vehicle: saline); 276 % of control (endpoint: mean survival time, dose: 22.0 mg/kg/injection, schedule: Q04DX003 (ip), vehicle: saline + alcohol); 228 % of control (endpoint: mean survival time, dose: 23.0 mg/kg/injection, schedule: Q01DX001 (sc), vehicle: saline); 236 % of control (endpoint: mean survival time, dose: 24.0 mg/kg/injection, schedule: Q01DX001 (ip), vehicle: saline). For the same compound, the T/C is 263 % of control and 357 % of control (endpoint: mean survival time, dose: 25.0 mg/kg/injection, schedule: Q01DX001 (ip), vehicle: saline); 261 % of control (endpoint: mean survival time, dose: 25.0 mg/kg/injection, schedule: Q01DX001 (oral), vehicle: saline); 266 % of control and 297 % of control (endpoint: mean survival time, dose: 29.0 mg/kg/injection, schedule: Q01DX001 (ip), vehicle: saline); 225 % of control and 440 % of control (endpoint: mean survival time, dose: 30.0 mg/kg/injection, schedule: Q01DX001 (ip), vehicle: saline); 246 % of control and 269 % of control (endpoint: mean survival time, dose: 31.0 mg/kg/injection, schedule: Q01DX001 (ip), vehicle: other); 241 % of control (endpoint: mean survival time, dose: 39.0 mg/kg/injection, schedule: Q01DX001 (sc), vehicle: saline). For the same compound, the T/C by setting is: (endpoint: mean survival time, dose: 39.5 mg/kg/injection, schedule: Q01DX001 (oral), vehicle: saline) 269 % of control and 387 % of control and 405 % of control; (endpoint: mean survival time, dose: 40.0 mg/kg/injection, schedule: Q01DX001 (ip), vehicle: other) 333 % of control; (endpoint: mean survival time, dose: 44.0 mg/kg/injection, schedule: Q04DX003 (ip), vehicle: saline + alcohol) 87 % of control; (endpoint: mean survival time, dose: 48.0 mg/kg/injection, schedule: Q01DX001 (ip), vehicle: saline) 296 % of control; (endpoint: mean survival time, dose: 50.0 mg/kg/injection, schedule: Q01DX001 (ip), vehicle: saline) 150 % of control; (endpoint: mean survival time, dose: 50.0 mg/kg/injection, schedule: Q01DX001 (oral), vehicle: saline) 238 % of control. The T/C runs as follows: (endpoint: mean survival time, dose: 60.0 mg/kg/injection, schedule: Q01DX001 (ip), vehicle: saline) 112 % of control; (endpoint: mean survival time, dose: 62.0 mg/kg/injection, schedule: Q01DX001 (ip), vehicle: other) 117 % of control; (endpoint: mean survival time, dose: 65.0 mg/kg/injection, schedule: Q01DX001 (sc), vehicle: saline) 162 % of control; (endpoint: mean survival time, dose: 79.0 mg/kg/injection, schedule: Q01DX001 (oral), vehicle: saline) 172 % of control and 175 % of control.
Turning to `Cc1c2oc3c(C)ccc(C(=O)N[C@@H]4C(=O)N[C@H](C(C)C)C(=O)N5CCC[C@H]5C(=O)N(C)CC(=O)N(C)[C@@H](C(C)C)C(=O)O[C@H]4C)c3nc-2c(C(=O)N[C@@H]2C(=O)N[C@H](C(C)C)C(=O)N3CCC[C@H]3C(=O)N(C)CC(=O)N(C)[C@@H](C(C)C)C(=O)O[C@H]2C)c(N)c1=O` (I: [aThr][dV]P[Sar][NMeV] / II: [aThr][dV]P[Sar][NMeV]; ester I:1-I:C, II:1-II:C; linker I:N-II:N via Actinocin(9to1)), the T/C was 97 % of control (endpoint: mean survival time, dose: 0.11 mg/kg/injection, schedule: Q01DX001 (ip), vehicle: saline); 102 % of control (endpoint: mean survival time, dose: 0.18 mg/kg/injection, schedule: Q01DX001 (ip), vehicle: saline); 102 % of control (endpoint: mean survival time, dose: 0.27 mg/kg/injection, schedule: Q01DX001 (ip), vehicle: saline); 101 % of control (endpoint: mean survival time, dose: 12.0 micrograms/kg/injection, schedule: Q01DX Z (ip), vehicle: saline); 104 % of control (endpoint: mean survival time, dose: 25.0 micrograms/kg/injection, schedule: Q01DX Z (ip), vehicle: saline); 102 % of control (endpoint: mean survival time, dose: 50.0 micrograms/kg/injection, schedule: Q01DX Z (ip), vehicle: saline). For the same compound, the T/C (endpoint: mean survival time, dose: 100.0 micrograms/kg/injection, schedule: Q01DX Z (ip), vehicle: saline) is 101 % of control.
For `C[C@@H]1CN1C1=CC(=O)C(N2C[C@H]2C)=CC1=O`, the T/C (endpoint: mean survival time, dose: 8.0 mg/kg/injection, schedule: Q01DX009 (ip), vehicle: Klucel (hydroxypropylcellulose) (HPC)) was 95 % of control.
As to `O=c1[nH]c(=O)n(C2CC(O)C(CO)O2)cc1F` (centres undefined), the T/C runs as follows: (endpoint: mean survival time, dose: 86.0 mg/kg/injection, schedule: Q01DX015 (ip), vehicle: saline) 160 % of control; (endpoint: mean survival time, dose: 239.0 mg/kg/injection, schedule: Q01DX001 (ip), vehicle: saline) 109 % of control; (endpoint: mean survival time, dose: 364.0 mg/kg/injection, schedule: Q01DX001 (ip), vehicle: saline) 104 % of control; (endpoint: mean survival time, dose: 543.0 mg/kg/injection, schedule: Q01DX001 (ip), vehicle: saline) 117 % of control.
Take `CS(=O)(=O)Nc1ccc(Nc2c3ccccc3nc3cc(N)ccc23)cc1`: the T/C by setting is: (endpoint: mean survival time, dose: 1.0 mg/kg/injection, schedule: Q01DX009 (ip), vehicle: saline) 120 % of control; (endpoint: mean survival time, dose: 1.0 mg/kg/injection, schedule: Q01DX009 (sc), vehicle: saline) 96 % of control; under setting [1], 98 % of control; (endpoint: mean survival time, dose: 2.0 mg/kg/injection, schedule: Q01DX009 (sc), vehicle: saline) 103 % of control; (endpoint: mean survival time, dose: 4.0 mg/kg/injection, schedule: Q01DX009 (sc), vehicle: saline) 104 % of control.
As to `c1cc2n(n1)CCN2`, the T/C is 94 % of control (endpoint: median survival time, dose: 50.0 mg/kg/injection, schedule: Q01DX009 (ip), vehicle: water); 106 % of control (endpoint: median survival time, dose: 100.0 mg/kg/injection, schedule: Q01DX009 (ip), vehicle: water); 102 % of control (endpoint: median survival time, dose: 100.0 mg/kg/injection, schedule: Q04DX003 (ip), vehicle: water); 107 % of control (endpoint: median survival time, dose: 200.0 mg/kg/injection, schedule: Q01DX009 (ip), vehicle: water); 114 % of control (endpoint: median survival time, dose: 200.0 mg/kg/injection, schedule: Q04DX003 (ip), vehicle: water); 116 % of control (endpoint: median survival time, dose: 300.0 mg/kg/injection, schedule: Q04DX003 (ip), vehicle: water).
